Experimental data taken from patent US10093631B2, “Bifunctional compounds and use for reducing uric acid levels” (Acquist LLC, priority 2014, dated 2018).
Like-named read-outs stand apart in the source and are kept apart here.

Assays:
xanthine oxidase = xanthine oxidase (Homo sapiens (Human), UniProt P47989); test: Fluorescence-based xanthine oxidase inhibition assay; assay type: biochemical
URAT1 (SLC22A12) = URAT1 (SLC22A12) (Homo sapiens (Human), UniProt Q96S37); test: URAT1 (SLC22A12) cellular uptake assay, 3H-orotate transport in stably transfected URAT-1/CHO cells; assay type: cell-based
URAT1 (SLC22A12), sequence (Q96S37 whole entry): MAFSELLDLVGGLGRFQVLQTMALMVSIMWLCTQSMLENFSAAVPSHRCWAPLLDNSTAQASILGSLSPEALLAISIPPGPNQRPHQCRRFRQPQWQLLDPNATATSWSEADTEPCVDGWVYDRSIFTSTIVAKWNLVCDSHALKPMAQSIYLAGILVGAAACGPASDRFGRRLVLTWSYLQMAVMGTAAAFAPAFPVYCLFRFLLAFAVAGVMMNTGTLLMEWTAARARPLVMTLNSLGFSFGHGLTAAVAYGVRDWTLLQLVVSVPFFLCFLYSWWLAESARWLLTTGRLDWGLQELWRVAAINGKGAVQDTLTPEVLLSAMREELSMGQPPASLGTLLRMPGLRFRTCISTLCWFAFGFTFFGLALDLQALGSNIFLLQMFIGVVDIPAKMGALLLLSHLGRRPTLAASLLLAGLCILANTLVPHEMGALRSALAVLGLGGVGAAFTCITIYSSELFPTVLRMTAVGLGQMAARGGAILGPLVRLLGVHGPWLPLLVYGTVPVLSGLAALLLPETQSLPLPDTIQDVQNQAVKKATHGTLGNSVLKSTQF

[1] = triplicate, 10 concentrations, read-out: Xanthine Oxidase IC50
[2] = URAT-1/CHO cells, 3H-orotate uptake, 7 concentrations 0.01 to 150 μM, read-out: URAT1 IC50

xanthine oxidase, sequence (P47989 whole entry, species assumed): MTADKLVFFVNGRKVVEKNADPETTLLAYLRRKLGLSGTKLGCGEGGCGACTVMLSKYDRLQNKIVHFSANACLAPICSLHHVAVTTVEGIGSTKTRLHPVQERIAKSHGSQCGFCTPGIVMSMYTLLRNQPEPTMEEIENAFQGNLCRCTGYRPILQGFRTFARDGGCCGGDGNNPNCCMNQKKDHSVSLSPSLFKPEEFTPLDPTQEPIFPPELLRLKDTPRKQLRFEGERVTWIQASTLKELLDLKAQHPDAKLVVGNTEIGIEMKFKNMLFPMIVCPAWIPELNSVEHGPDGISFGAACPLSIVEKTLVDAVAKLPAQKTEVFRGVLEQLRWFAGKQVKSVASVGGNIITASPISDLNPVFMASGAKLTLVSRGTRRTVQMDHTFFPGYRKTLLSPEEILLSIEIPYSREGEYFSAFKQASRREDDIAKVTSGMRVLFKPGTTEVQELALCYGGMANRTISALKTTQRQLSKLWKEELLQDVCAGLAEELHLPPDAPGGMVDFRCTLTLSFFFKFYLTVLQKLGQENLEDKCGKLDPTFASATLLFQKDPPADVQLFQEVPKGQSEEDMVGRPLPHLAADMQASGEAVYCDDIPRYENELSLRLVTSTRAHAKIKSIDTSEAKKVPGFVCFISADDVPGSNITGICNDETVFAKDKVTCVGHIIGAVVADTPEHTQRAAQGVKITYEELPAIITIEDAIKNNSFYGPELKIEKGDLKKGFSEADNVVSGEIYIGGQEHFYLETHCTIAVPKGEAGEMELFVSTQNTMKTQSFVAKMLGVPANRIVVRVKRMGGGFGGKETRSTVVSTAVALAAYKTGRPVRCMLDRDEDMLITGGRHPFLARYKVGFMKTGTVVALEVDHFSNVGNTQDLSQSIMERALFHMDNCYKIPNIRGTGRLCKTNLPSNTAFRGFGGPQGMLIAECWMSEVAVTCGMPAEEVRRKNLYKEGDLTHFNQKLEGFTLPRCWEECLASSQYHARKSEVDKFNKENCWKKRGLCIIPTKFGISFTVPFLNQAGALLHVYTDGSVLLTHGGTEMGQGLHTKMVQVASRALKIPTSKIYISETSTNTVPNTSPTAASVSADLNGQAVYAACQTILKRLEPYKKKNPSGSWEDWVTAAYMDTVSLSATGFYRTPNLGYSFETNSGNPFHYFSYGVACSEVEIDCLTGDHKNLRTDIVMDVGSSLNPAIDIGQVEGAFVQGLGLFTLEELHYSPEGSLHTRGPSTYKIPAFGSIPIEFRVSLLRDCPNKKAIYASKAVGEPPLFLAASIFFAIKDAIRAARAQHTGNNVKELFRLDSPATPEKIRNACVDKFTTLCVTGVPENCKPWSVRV

Structure (SMILES) | IC50 (xanthine oxidase) | IC50 (URAT1 (SLC22A12)) | IC50 (xanthine oxidase; [1]) | IC50 (URAT1 (SLC22A12); [2])
O=C(Nc1ccc(F)cc1)c1c(O)[nH]c(=S)[nH]c1=O [Formula (Ib), N-(4′-fluorophenyl)-1,2,3,4-tetrahydro-6-hydroxy-4-oxo-2-thioxo-5-pyrimidinecarboxamide] | < 10 µM | < 10 µM |  | 
O=C(Nc1ccncc1)c1c(O)[nH]c(=O)[nH]c1=O [Formula (Ik), 6-hydroxy-2,4-dioxo-N-(pyridin-4-yl)-1,2,3,4-tetrahydropyrimidine-5-carboxamide] |  |  | 14.3 µM | 5.3 µM
O=C(Nc1ccc(O)cc1F)c1c(O)[nH]c(=S)[nH]c1=O [Formula (Ic), N-(2′-fluoro-4′-hydroxyphenyl)-1,2,3,4-tetrahydro-6-hydroxy-4-oxo-2-thioxo-5-pyrimidinecarboxamide] | < 10 µM | < 10 µM | 5.6 µM | 5.83 µM
O=C(Nc1ccc(O)cc1F)c1c(O)[nH]c(=O)[nH]c1=O [Formula (Ih), N-(2-fluoro-4-hydroxyphenyl)-6-hydroxy-2,4-dioxo-1,2,3,4-tetrahydropyrimidine-5-carboxamide] |  |  | 5.97 µM | 1.79 µM
O=C(Nc1cc(F)c(O)c(F)c1)c1c(O)[nH]c(=O)[nH]c1=O [Formula (Ig), N-(3,5-difluoro-4-hydroxyphenyl)-6-hydroxy-2,4-dioxo-1,2,3,4-tetrahydropyrimidine-5-carboxamide] | < 10 µM | < 10 µM | 1.92 µM | 3.55 µM
